Source: patent US20130116225A1, “METHOD FOR TREATING HEMATOLOGICAL CANCERS” (NIIKI PHARMA INC., priority 2010, published 2013)
pIC50: −log10 of the molar value. “Also recorded” adds a separate entry of the source. Where two headings read alike, the source gives them in different places.

Legend:
[1] = system: ARH-77 multiple myeloma cells; assay: Anti-proliferation assay, Cell Titer-Glo (Example 3); format: cell-based, human; settings: 96 hours total culture
Description: (§1) To determine the growth inhibitory activity of tris(8-quinolinolato)gallium(III) and lenalidomide, a representative panel of human multiple myeloma tumor cell lines (OPM-2, RPMI-8226, NCI-H929 and ARH-77) were tested with the compounds in anti-proliferation assays. Specifically, the human tumor cells were placed in a 96-well microculture plate at the appropriate density for 96 hours of total growth time. After 24 hours of incubation in a humidified incubator at 37° C. with 5% CO2 and 95% air, serially diluted test agents in growth medium were added to each well. After 96 total hours of culture in a CO2 incubator, the plates were processed with Cell Titer-Glo (Promega #G7571) according to manufacturer's instructions. Luminescence was detected using a Tecan GENios microplate reader. Percent inhibition of cell growth was calculated relative to untreated control wells. All tests were performed in duplicate at each concentration level.
(§2) The IC50 value for the test agents was estimated using Prism 3.03 by curve-fitting the data using the following four parameter-logistic equation: […]
(§3) where Top is the maximal % of control absorbance, Bottom is the minimal % of control absorbance at the highest agent concentration, Y is the % of control absorbance, X is the agent concentration, IC50 is the concentration of agent that inhibits cell growth by 50% compared to the control cells, and n is the slope of the curve.

[2] = system: NCI-H929 multiple myeloma cells; assay: as above; format: cell-based, human
Description: as §1, §2, §3

[3] = system: OPM-2 multiple myeloma cells; assay: as above; format: cell-based, human; settings: 96 hours total culture
Description: as §1, §2, §3

[4] = system: RPMI-8226 multiple myeloma cells; assay: as above; format: cell-based, human; settings: 96 hours total culture
Description: as §1, §2, §3

MV4-11 leukemia cells = assay: Cell growth inhibition, Cell Titer-Glo (Example 4); format: cell-based, human; settings: 96 total hours of culture
Description: The human leukemia cell line MV4-11 cells were placed in a 96-well microculture plate (Costar white, flat bottom #3917) in a total volume of 90 μL/well. After 24 hours of incubation in a humidified incubator at 37° C. with 5% CO2 and 95% air, 10 μL of 10×, serially diluted tris(8-quinolinolato)gallium(III) in growth medium was added to each well. After 96 total hours of culture in a CO2 incubator, the plated cells and Cell Titer-Glo (Promega #G7571) reagents were brought to room temperature to equilibrate for 30 minutes. 100 μL of Cell Titer-Glo® reagent was added to each well. The plate was shaken for 2 minutes and then left to equilibrate for 10 minutes before reading luminescence on the Tecan GENios microplate reader. Percent inhibition of cell growth was calculated relative to untreated control wells. All tests were performed in duplicate at each concentration level. The IC50 value for the test agent was estimated using Prism 3.03 by curve-fitting the data using the following four parameter-logistic equation: […]
as §3, with “minimal” for “minimal %”, “curve. […]” for “curve.”

BJAB lymphoma cells [5] = assay: LDH release cytotoxicity assay; format: cell-based, human; settings: 1 hour exposure
Description: Cytotoxicity of the different drugs was measured by the release of lactate dehydrogenase (LDH). After incubation with different concentrations of tris(8-quinolinolato)gallium(III) for 1 hour, LDH activity released by BJAB cells was measured in the cell culture supernatants using the Cytotoxicity Detection Kit from Boehringer Mannheim® (Mannheim, Germany). The supernatants were centrifuged at 1500 rpm for 5 min. 20 μl of cell-free supernatants were diluted with 80 μl phosphate-buffered saline (PBS), and 100 μl reaction mixture containing 2-[4-iodophenyl]-3-[4-nitrophenyl]-5-phenyltetrazolium chloride (INT), sodium lactate, […] and diaphorase were added. Then, time-dependent formation of the reaction product was quantified photometrically at 490 nm. The maximum amount of LDH activity released by the cells was determined after lysis of the cells using 0.1% Triton X-100 in culture medium and set to represent 100% cell death.
Unspecific cytotoxic effects of the agent such as necrosis could be excluded by determination of extra cellular lactate dehydrogenase (LDH) via ELISA detection.

BJAB lymphoma cells [6] = assay: Cell viability and proliferation, CASY Cell Counter; format: cell-based, human
Description: FIG. 1 is a graph showing cell viability and inhibition of proliferation of BJAB lymphoma cells by tris(8-quinolinolato)gallium(III), which inhibits proliferation in a dose-dependent manner up to 100% (exposure time 24 hours);
Cell viability was determined by using the CASY® Cell Counter+Analyzer System of Innovatis (Bielefeld, Germany). Settings were specifically defined for the requirements of the cells used. With this system the cell concentration can be analyzed simultaneously in three different size ranges: thus cell debris, dead cells, and viable cells could be determined in one measurement. Cells were seeded at a density of 1×10^5cells/ml and treated with different concentrations of […]; non-treated cells served as controls. After a 24-hour incubation period, cells were re-suspended completely, and 100 μl of each well were diluted in 10 ml CASYton (ready-to-use isotonic saline solution) for immediate automated counting.
In order to assess the antiproliferative effects of tris(8-quinolinolato)gallium(III), BJAB lymphoma cells were exposed to various concentrations of the drug for 24 hours. The determination of cell viability and cell count were carried out with a CASY® Cell Counter and Analyzer System.

BJAB lymphoma cells [7] = assay: Apoptosis induction, flow cytometric hypodiploid DNA (DNA fragmentation); format: cell-based, human; settings: 72 hours
Description: FIG. 3 is a diagram showing apoptosis induction measured via flow cytometric determination of hypodiploid DNA in BJAB cells after treatment with tris(8-quinolinolato)gallium(III) for 72 hours. Data are given in % hypodiploidy (subG1)±ESD (n=3), which is consistent with the number of apoptotic cells;
DNA fragmentation on the single cell level.
To quantify the induction of apoptosis triggered by tris(8-quinolinolato)gallium(III) we determined the DNA fragmentation (hypodiploidy) as a characteristic effect of apoptotic cell death. The procedure was conducted by flow cytometric measurement of hypodiploid DNA after incubating lymphoma cells (BJAB) for 72 hours with the agent. Extensive apoptosis induction could be reached even in low concentrations of the agent (AC50: ˜1 μM), seen in FIG. 3.

[8] = system: caspase-9 and caspase-3 in BJAB cells; assay: Western blot analysis of caspase activation; format: cell-based, human; settings: 24 hours
Description: FIG. 6 includes chromatograms showing Western blot analysis of tris(8-quinolinolato)gallium(III)-treated BJAB cells. Epirubicin was used as a positive control. After incubation for 24 hours the protein extracts were fractionated on a denaturating 4-20% polyacrylamide gel, transferred to nitrocellulose and detected with anti-caspase-31-9 and anti-β-actin antibody. A: caspase-9 (procaspase: 47 kDa; cleavage product: 37 kDa), B: caspase-3 (procaspase: 32 kDa; cleavage products: 18 and 17 kDa), C: β-actin (42 kDa);
For Western blot analysis, cytosolic protein ([…]) was loaded in each lane and was separated by sodium dodecylsulfate (SDS) PAGE. After blotting of proteins onto nitrocellulose membranes (Schleicher and Schuell, Dassel, Germany), the membrane was blocked for 1 h in PBST (PBS containing 0.05% Tween-20) containing 3% nonfat dry milk and incubated with primary antibody overnight at 4° C. After the membrane had been washed three times in PBST, secondary antibody in PBST was applied for 1 h. […]
Further evidence for apoptosis via the intrinsic pathway was obtained by investigating the consecutive activation of caspase-9 and -3 by Western blot analysis. […] The activation of both caspases by proteolytic cleavage was determined after treatment of BJAB cells with tris(8-quinolinolato)gallium(III). […]

[9] = system: Harakiri gene expression in BJAB cells; assay: Real-time PCR apoptosis gene expression array; format: cell-based, human; settings: 2.5 μM, 8 hours
Description: (§4) For the analysis of the differential expression of multiple genes involved in the different apoptosis pathways, apoptosis-specific RT2 profiler (polymerase chain reaction) PCR expression arrays (SuperArray PAHS-012; SABiosciences Corporation, Frederick, Md., USA) was used according to the manufacturer's instructions. Total RNA was extracted from BJAB cells treated with […] for 8 hours, and RNAs were treated with DNase I (2 U/μl) to eliminate possible genomic DNA contamination. Total RNA (700 ng/μl) was then used as a template for the synthesis of a cDNA probe and subjected to quantitative real-time PCR SuperArray analysis according to the manufacturer's instructions using a LightCycler480 (Roche Diagnostics). The means of nine housekeeping genes were used to normalize the hybridization signals. Results were analyzed using SuperAnay Analyser Software, and the data are given in-fold expression of the respective genes as compared with control cells incubated in vehicle-containing medium for 8 hours.
(§5) Changes of transcript levels of apoptosis relevant genes were analyzed in RNA isolated from BJAB cells after 8 hours of incubation with 2.5 μM tris(8-quinolinolato)gallium(III). […] Harakiri (Hrk) is a pro-apoptotic Bcl-2 homology domain 3-only protein of the Bcl-2 family.

[10] = system: caspase-5 gene expression in BJAB cells; assay: Real-time PCR apoptosis gene expression array; format: cell-based, human; settings: 2.5 μM, 8 hours
Description: as §4, §5

[11] = system: DoHH2 Human EBV-negative B Cell Lymphoma cells; assay: Anti-proliferation assay, Cell Titer-Glo (Example 6); format: cell-based; settings: 96 total hours of culture
Description: (§6) To determine the antiproliferative activity of tris(8-quinolinolato)gallium(III) in human lymphoma tumor cell lines, anti-proliferation assays were conducted in the DoHH2. Granta 519, and WSU-DLCL2 cell lines. The DoHH2 Human EBV-negative B Cell Lymphoma cells were seeded with 5,000 cells/well and grown in RPMI1640 medium containing 20% FBS, and 2 mM L-Glutamine. The Granta 519 Human Mantle Cell Lymphoma cells were seeded with 10,000 cells/well and grown in DMEM medium containing 10% FBS, and 2 mM L-Glutamine. The WSU-DLCL2 Human B Cell Lymphoma cells were seeded with 5,000 cells/well and grown in RPMI1640 medium containing 10% FBS, and 2 mM L-Glutamine. Specifically, the human tumor cells were placed in a 96-well microculture plate at the appropriate density for 96 hours of total growth time. After 24 hours of incubation in a humidified incubator at 37° C. with 5% CO2 and 95% air, serially diluted test agents in growth medium were added to each well. After 96 total hours of culture in a CO2 incubator, the plates were processed with Cell Titer-Glo (Promega #G7571) according to manufacturer's instructions. Luminescence was detected using a Tecan GENios microplate reader. Percent inhibition of cell growth was calculated relative to untreated control wells. All tests were performed in duplicate at each concentration level. The IC50 value for the test agents was estimated using Prism 3.03 by curve-fitting the data using the four parameter-logistic equation as described in Example 4 above. […] It is known that WSU-DLCL2 cells are resistant to the CHOP (cyclophosphamide, adriamycin, vincristine, prednisone) regimen. See Levi et al., Cancer Chemother. Pharmacal., (published online Aug. 31, 2010). Thus, tris(8-quinolinolato)gallium(III) is also active against lymphoma cells resistant to drugs. such as cyclophosphamide, adriamycin, vincristine, prednisone.

[12] = system: Granta 519 Human Mantle Cell Lymphoma cells; assay: as above; format: cell-based; settings: 96 total hours of culture
Description: as §6

[13] = system: WSU-DLCL2 Human B Cell Lymphoma cells; assay: as above; format: cell-based; settings: 96 total hours of culture
Description: as §6

[14] = system: CCRF-CEM, Jurkat, MOLT-4 cell lines; settings: read-out: IC50, inhibiting cell growth and proliferation; all cell lines of Table 1; 48 hours with drug; XTT
Description: Cells have been expanded under appropriate culture conditions until sufficient cells were available for the assay. Adherent cells were trypsinated. Cell count and viability of the cells were determined (Casy T T, Schärfe Systems). The Cells (viability >95%) were seeded in 100 μl of cell culture medium at the appropriate density of living cells into 96-well tissue culture plates. The cells were incubated at 37° C. and 5% CO2 for 24 hours.
For a negative control, 100 μl of cell culture medium were added to three wells (100% value). For a positive control all cells were deadened with phenol (0% value). The cells were incubated with the drug for further 48 hours at 37° C. and 5% CO2.
XTT assays were performed on the above treated cells. XTT is a tetrazolium salt that can be cleaved by “succinate-tetrazolium reductase”, a mitochondrial redox-system that is exclusively active in living cells. The cleavage results in a soluble formazan salt that can be quantified by colorimetric measuring at 450 nm. The intensity of the orange color is directly linked to the number of living, metabolically active cells. A concentrated stock solution (1 mg/ml PBS) of XTT (Sigma-Aldrich) was prepared, aliquoted, filtered and stored at −20° C. […] The developed formazan was quantified in an absorbance micro plate reader (Genios, Tecan) at a measurement wavelength of 450 nm and a reference wavelength of 690 nm.

[15] = system: vincristine-resistant Nalm-6 cells; settings: vincristine-resistant Nalm-6, P-gp overexpressing; 72 hours
Description: (§7) After 72 hours of incubation with different concentrations of the agent, DNA fragmentation was measured via FACS scan analysis. […] Values of DNA fragmentation are given as percentages of cells with hypodiploid DNA±s.d. (n=3);
(§8) Apoptotic cell death was determined by a modified cell cycle-analysis, which detects. DNA fragmentation on the single cell level. […] After a 72-hour incubation period at a temperature of 37° C., cells were collected by centrifugation at 1500 rpm for 5 min, washed with PBS at 4° C. and fixed in PBS/2% (v/v) formaldehyde on ice for 30 minutes. After fixation, cells were pelleted, incubated with ethanol/PBS (2:1, v/v) for 15 minutes, pelleted and resuspended in PBS containing 40 μg/ml RNase. RNA was digested for 30 minutes at a temperature of 37° C., after which the cells were pelleted again and finally resuspended in PBS containing 50 μg/ml propidium iodide. Nuclear DNA fragmentation was quantified by flow cytometric determination of hypodiploid DNA. Data were collected and analyzed using a FACScan instrument (Becton Dickinson, Heidelberg, Germany) equipped with CELL Quest software. Data are given in percent hypodiploidy (subG1), which reflects the number of apoptotic cells.

[16] = system: daunorubicin-resistant Nalm-6 cells; settings: daunorubicin-resistant Nalm-6, P-gp overexpressing; 72 hours
Description: as §7, §8

Nc1cccc2c1CN(C1CCC(=O)NC1=O)C2=O (stereo not drawn) [Lenalidomide, lenalidomide, reference compound]
IC50 [1]: Inactive | pIC50 ([2]; Homo sapiens, NCI-H929, 96 hours total culture): 5.28 | pIC50 ([3]; Homo sapiens): 5.23 | IC50 [4]: Inactive

[Ga+3].[O-]c1cccc2cccnc12.[O-]c1cccc2cccnc12.[O-]c1cccc2cccnc12 [tris(8-quinolinolato)gallium(III)]
pIC50 ([1]; read-out: IC50): 6.05 | pIC50 ([2]; 96 hours total culture): 5.80 | pIC50 [3]: 6.13 | pIC50 ([4]; read-out: IC50): 6.09 | pIC50 (MV4-11 leukemia cells): 5.84 | LDH release (unspecific cytotoxicity, necrosis) (BJAB lymphoma cells [5]): negligible; also recorded: no significant LDH release | concentration giving complete block of proliferation (BJAB lymphoma cells [6]; 24 hours): ≥ 2 µM | pIC50 (BJAB lymphoma cells [6]; 24 hours, read-out: IC50, inhibition of proliferation): > 6.00 | inhibition of proliferation, maximal (BJAB lymphoma cells [6]; exposure time 24 hours): up to 100% | AC50 (BJAB lymphoma cells [7]): ~1000 nM | CC50 (BJAB lymphoma cells [7]; read-out: LC50, apoptosis by DNA fragmentation): ~1000 nM | processing of procaspase-3 and procaspase-9 [8]: induces processing of procaspase-3 (p32) and procaspase-9 (p47) | Harakiri gene expression, upregulation [9]: 29 fold | caspase-5 gene expression, upregulation [10]: 118 fold | pIC50 [11]: 6.67 | pIC50 [12]: 5.54 | pIC50 [13]: 5.83 | pIC50 [14]: > 5.46 | apoptosis (DNA fragmentation) in resistant cells versus control cells [15]: higher apoptotic amounts in the resistant cells compared to the control cells | apoptosis (DNA fragmentation) in resistant cells versus control cells [16]: higher apoptotic amounts in the resistant cells compared to the control cells
